According to patent publication US10111889B2, “Uses of ganaxolone” (priority 2014, dated 2018):

Key:
RQ mice = assay: Evaluation of sleep patterns (video and EEG) in RQ mice; assay type: in vivo, mouse; conditions: 2 mg/kg i.p. on two consecutive days
Text: RR and RQ mice (n=3 each) were monitored with video and EEG recordings. […] Sleep stages (Wake, NREM and REM) were scored visually from the EEG by an experienced scorer. For statistical analysis, EEG delta power (0.5-4 Hz) was normalized by dividing by the sum of power in the non-delta bands (6-100 Hz).

WAG/Rij mice = conditions: administered directly into somatosensory cortex; cited from earlier work
[1] = clinical trials; even at very high doses; cited from earlier work
GABAA receptor = assay: Whole-cell patch clamp, tonic/holding current in somatosensory cortical layer II/III pyramidal cells of brain slices; assay type: cell-based, mouse; conditions: 30 μM
Procedure: Horizontal slices (400 μm) were prepared from the brains of C57BL/6J mice RR and RQ mice of either sex (16-26 days old). […] Mice were anesthetized with isoflurane, decapitated, and the brain was removed and placed in ice-cold cutting solution containing (in mM): 125 NaCl, 25 NaHCO3, 2.5 KCl, 1.25 NaH2PO4, 0.5 CaCl2, 3.35 MgCl2, 25 D-Glucose, 13.87 M sucrose, and bubbled with 95% O2 and 5% CO2. Slices were cut using a vibratome (Leica VT 1000S, Global Medical Imaging; Ramsey, Minn.) and placed in an incubation chamber containing standard 2 mM CaCl2, 1 mM MgCl2 artificial cerebrospinal fluid (ACSF) at room temperature for 1 hour before being used for recordings. Whole cell patch-clamp recordings were made from somatosensory cortical layer II/III pyramidal cells or ventrobasal thalamic relay cells, visualized using an upright differential interference contrast microscope (Axioskop FS2, Zeiss; Oberkochen, Germany). […]
Additional segments (30 s) just prior to and 90 s after bicuculline administration were analyzed to quantify inhibitory tonic currents. […] Tonic current was calculated as the difference between the fitted Gaussian means before and after bicuculline administration. Current density (pA/pF) was calculated by dividing the current by cell capacitance.

wild-type (RR) mice = assay: EEG monitoring of SWDs in wild-type (RR) mice after blocking cortical tonic inhibition; assay type: in vivo, mouse
Text: The present study used wild-type Harlan C57BL/6J-OlaHsd and γ2R43Q knock-in mice bred into a background of C57BL/6J-OlaHsd mice. Behavioral and electrographic markers of absence epilepsy in these animals were confirmed by video-EEG monitoring. In-depth detailing of surgery and electrode implantation are described in the prior art. Briefly, P24 mice were implanted, under isoflurane anesthesia (1%-2% in 100% O2), for chronic EEG recordings with gold plated miniature screw electrodes over the right and left frontal and parietal cortices, and one over the cerebellum as reference. Two vinyl-coated braided stainless steel wire electrodes were placed in the nuchal muscle for electromyogram (EMG) recording of muscle activity. All electrodes were gathered into a flexible cable and connected to the Multichannel Neurophysiology Recording system (Tucker-Davis Technologies, TDT, Alachua, Fla., USA). […] Continuous EEG recordings with occasional video monitoring were made and SWDs were scored off-line. […] Only SWD events that occurred >2 min from slow-wave-sleep periods were used for quantification. SWD event durations were measured from the first synchronized positive peak signal to the last synchronized positive peak within an event. […]
When comparing normally distributed data, two groups were assessed with a t-test and comparisons of three or more were assessed with ANOVA. […]

wild-type mice = conditions: thalamus of wild-type mice; cited from earlier work

CC(=O)[C@H]1CC[C@H]2[C@@H]3CC[C@H]4C[C@](C)(O)CC[C@]4(C)[C@H]3CC[C@]12C [GANX, 3α-hydroxy-3β-methyl-5α-pregnan-20-one]
briefer Wake durations of RQ mice (RQ mice; RQ mice): not reversed | shorter brief awakenings (<=16 seconds) of RQ mice (RQ mice; RQ mice): not altered | shorter durations of single NREM episodes of RQ mice (RQ mice; RQ mice): reversed by GANX to normal levels | higher normalized delta power of RQ mice (RQ mice; RQ mice, normal sleep time (daylight)): reversed by GANX toward normal levels | durations of REM (RQ mice; RR, RQ, RQ with GANX): No groups differed | number of brief awakenings (RQ mice; RR, RQ, RQ with GANX): did not differ between any groups | number of SWDs observed (WAG/Rij mice): decreases the number of SWDs | side effects [1]: relatively modest side effects

CCOC(=O)c1ncn2c1C1CCCN1C(=O)c1cc(OC)ccc1-2 (stereo not shown) [L655,708, 11,12,13,13a-Tetrahydro-7-methoxy-9-oxo-9H-imidazo[1,5-a]pyrrolo[2,1-c][1,4]benzodiazepine-1-carboxylic acid, ethyl ester]
tonic current in RR somatosensory cortical layer II/III cells (GABAA receptor): completely blocked | SWD generation in RR mice (wild-type (RR) mice; 2 mg/kg i.p.): produced SWDs | persistence of SWDs after the last injection (wild-type (RR) mice; injected twice a day for 2 consecutive days, wild-type mice): still displayed SWDs 3 days after the last injection

Oc1noc2c1CCNC2 [THIP, 4,5,6,7-tetrahydroisoxazolo[5,4-c]pyridin-3-ol]
SWDs associated with absence epilepsy (wild-type mice): produces the SWDs

CC(=O)[C@H]1CC[C@H]2[C@@H]3CC[C@H]4C[C@H](O)CC[C@]4(C)[C@H]3CC[C@]12C [allopregnanolone]
number of SWDs observed (WAG/Rij mice): decreases the number of SWDs
